Laboratory results published in US10836725B2, “Modulators of the integrated stress pathway” (Calico Life Sciences LLC, priority 2016, dated 2020).

test system: ATF4 luciferase reporter; assay: ATF4-Luc assay in HEK293T cells carrying the ATF4 luciferase reporter (in vitro model of VWMD); type: cell-based, human; conditions: Homo sapiens, HEK-293T, 1 μg/mL tunicamycin, 7 hours, luminescence (One Glo)
Summary of the method: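 Reporter cells were stably generated by retroviral transduction and puromycin selection, then seeded at 30,000 cells/well. Next day, cells received 1 μg/mL tunicamycin with 200 nM test compound for 7 h, and luciferase luminescence was read with a one-step reagent. Values reported as EC50.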

Compound	EC50 [nM]
O=C(COc1ccc(Cl)c(F)c1)NC12CC(C(=O)NCc3noc(-c4ccccc4)n3)(C1)C2 [Compound 201, 3-[2-(4-chloro-3-fluorophenoxy)acetamido]-N-[(5-phenyl-1,2,4-oxadiazol-3-yl)methyl]bicyclo[1.1.1]pentane-1-carboxamide]	1000 to 2000
Cc1cccc(-c2nc(CNC(=O)C34CC(NC(=O)COc5ccc(Cl)c(F)c5)(C3)C4)cs2)c1 [Compound 214, 3-[2-(4-chloro-3-fluorophenoxy)acetamido]-N-{[2-(3-methylphenyl)-1,3-thiazol-4-yl]methyl}bicyclo[1.1.1]pentane-1-carboxamide]	> 2000
O=C(COc1ccc(Cl)c(F)c1)NC12CCC(C(=O)NCc3cc(F)cc(C(F)(F)F)c3)(CC1)C(O)C2 (stereo not drawn) [Compound 126, 4-[2-(4-chloro-3-fluorophenoxy)acetamido]-N-{[3-fluoro-5-(trifluoromethyl)phenyl]methyl}-2-hydroxybicyclo[2.2.2]octane-1-carboxamide]	> 2000
Cc1cccc(OCCNC(=O)C23CC(NC(=O)COc4ccc(Cl)cc4)(C2)C3)c1 [Compound 101, 3-[2-(4-chlorophenoxy)acetamido]-N-[2-(3-methylphenoxy)ethyl]bicyclo[1.1.1]-pentane-1-carboxamide]	1000 to 2000
CS(=O)(=O)c1ccc(CNC(=O)C23CCC(NC(=O)COc4ccc(Cl)c(F)c4)(CC2)CC3O)nc1 (stereo not drawn) [Compound 121, 4-[2-(4-chloro-3-fluorophenoxy)acetamido]-2-hydroxy-N-{[5-(methanesulfonyl)pyridin-2-yl]methyl}bicyclo[2.2.2]octane-1-carboxamide]	> 2000
O=C(COc1ccc(Cl)c(F)c1)NC12CC(C(=O)NCc3nnc4n3CCCC4)(C1)C2 [Compound 223, 3-[2-(4-chloro-3-fluorophenoxy)acetamido]-N-[(5,6,7,8-tetrahydro[1,2,4]triazolo[4,3-a]pyridin-3-yl)methyl]bicyclo[1.1.1]pentane-1-carboxamide]	> 2000
Cc1ccc(OCCNC(=O)C23CC(NC(=O)COc4ccc(Cl)c(F)c4)(C2)C3)cc1C [Compound 158, 3-[2-(4-chloro-3-fluorophenoxy)acetamido]-N-[2-(3,4-dimethylphenoxy)ethyl]bicyclo[1.1.1]pentane-1-carboxamide]	< 250
Cc1cc(C)c(CNC(=O)C23CCC(NC(=O)COc4ccc(Cl)c(F)c4)(CC2)CC3O)cn1 (stereo not drawn) [Compound 111, 4-[2-(4-chloro-3-fluorophenoxy)acetamido]-N-[(4,6-dimethylpyridin-3-yl)methyl]-2-hydroxybicyclo[2.2.2]octane-1-carboxamide]	> 2000
CN(Cc1ccccc1)C(=O)C12CC(NC(=O)COc3ccc(Cl)c(F)c3)(C1)C2 [Compound 175, N-benzyl-3-[2-(4-chloro-3-fluorophenoxy)acetamido]-N-methylbicyclo[1.1.1]pentane-1-carboxamide]	> 2000
O=C(COc1ccc(Cl)c(Cl)c1)NC12CC(C(=O)NCc3ccc(OC(F)F)cn3)(C1)C2 [Compound 148, 3-[2-(3,4-dichlorophenoxy)acetamido]-N-{[5-(difluoromethoxy)pyridin-2-yl]methyl}bicyclo[1.1.1]pentane-1-carboxamide]	< 250
O=C(COc1ccc(Cl)c(F)c1)NC12CCC(C(=O)NCc3cnccn3)(CC1)C(O)C2 (stereo not drawn) [Compound 144]	> 2000
Cc1cc(CCNC(=O)C23CC(NC(=O)COc4ccc(Cl)c(F)c4)(C2)C3)cc(C)n1 [Compound 211, 3-[2-(4-chloro-3-fluorophenoxy)acetamido]-N-[2-(2,6-dimethylpyridin-4-yl)ethyl]bicyclo[1.1.1]pentane-1-carboxamide]	1000 to 2000
O=C(COc1ccc(Cl)c(F)c1)NC12CCC(C(=O)NCc3cccc(Cl)c3)(CC1)C(O)C2 (stereo not drawn) [Compound 131, 4-[2-(4-chloro-3-fluorophenoxy)acetamido]-N-[(3-chlorophenyl)methyl]-2-hydroxybicyclo[2.2.2]octane-1-carboxamide]	250 to 500
CC(NC(=O)C12CCC(NC(=O)COc3ccc(Cl)c(F)c3)(CC1)CC2O)c1cccnc1 (stereo not drawn) [Compound 140, 4-[2-(4-chloro-3-fluorophenoxy)acetamido]-2-hydroxy-N-[1-(pyridin-3-yl)ethyl]bicyclo[2.2.2]octane-1-carboxamide]	> 2000
O=C(COc1ccc(Cl)c(F)c1)NC12CCC(C(=O)NCCc3ccc(C(F)(F)F)cc3)(CC1)C(O)C2 (stereo not drawn) [Compound 138, 4-[2-(4-chloro-3-fluorophenoxy)acetamido]-2-hydroxy-N-{2-[4-(trifluoromethyl)phenyl]ethyl}bicyclo[2.2.2]octane-1-carboxamide]	< 250
N#Cc1ccc(CNC(=O)C23CCC(NC(=O)COc4ccc(Cl)c(F)c4)(CC2)CC3O)nc1 (stereo not drawn) [Compound 141, 4-[2-(4-chloro-3-fluorophenoxy)acetamido]-N-[(5-cyanopyridin-2-yl)methyl]-2-hydroxybicyclo[2.2.2]octane-1-carboxamide]	< 250

The remaining lines, values ahead:

EC50 [nM]	Compound
250 to 500	Cc1cc(OCCNC(=O)C23CC(NC(=O)COc4ccc(Cl)cc4)(C2)C3)ccc1Cl [Compound 103, N-[2-(4-chloro-3-methylphenoxy)ethyl]-3-[2-(4-chlorophenoxy)acetamido]-bicyclo[1.1.1]pentane-1-carboxamide]
> 2000	Cc1ccc(F)c(CNC(=O)C23CC(NC(=O)COc4ccc(Cl)c(F)c4)(C2)C3)c1 [Compound 174, 3-[2-(4-chloro-3-fluorophenoxy)acetamido]-N-[(2-fluoro-5-methylphenyl)methyl]bicyclo[1.1.1]pentane-1-carboxamide]
1000 to 2000	Cc1ccc(CNC(=O)C23CC(NC(=O)COc4ccc(Cl)c(F)c4)(C2)C3)nc1 [Compound 168, 3-[2-(4-chloro-3-fluorophenoxy)acetamido]-N-[(5-methylpyridin-2-yl)methyl]bicyclo[1.1.1]pentane-1-carboxamide]
> 2000	O=C(COc1ccc(Cl)c(F)c1)NC12CC(C(=O)NCCc3ccc(F)cc3)(C1)C2 [Compound 239, 3-[2-(4-chloro-3-fluorophenoxy)acetamido]-N-[2-(4-fluorophenyl)ethyl]bicyclo[1.1.1]pentane-1-carboxamide]
> 2000	NS(=O)(=O)c1ccc(CCNC(=O)C23CC(NC(=O)COc4ccc(Cl)c(F)c4)(C2)C3)cc1 [Compound 199, 3-[2-(4-chloro-3-fluorophenoxy)acetamido]-N-[2-(4-sulfamoylphenyl)ethyl]bicyclo[1.1.1]pentane-1-carboxamide]
< 250	O=C(COc1ccc(Cl)c(F)c1)NC12CC(C(=O)NCc3ccc(Cl)cc3)(C1)C2 [Compound 117, 3-[2-(4-chloro-3-fluorophenoxy)acetamido]-N-[(4-chlorophenyl)methyl]bicyclo[1.1.1]pentane-1-carboxamide]
> 2000	Cc1ccc(CNC(=O)C23CC(NC(=O)COc4ccc(Cl)c(F)c4)(C2)C3)cn1 [Compound 155, 3-[2-(4-chloro-3-fluorophenoxy)acetamido]-N-[(6-methylpyridin-3-yl)methyl]bicyclo[1.1.1]pentane-1-carboxamide]
< 250	O=C(COc1ccc(Cl)c(Cl)c1)NC12CC(C(=O)NCc3ccc(C(F)(F)F)nc3)(C1)C2 [Compound 150, 3-[2-(3,4-dichlorophenoxy)acetamido]-N-{[6-(trifluoromethyl)pyridin-3-yl]methyl}bicyclo[1.1.1]pentane-1-carboxamide]
> 2000	O=C(COc1ccc(Cl)c(F)c1)NC12CC(C(=O)NCc3ccccc3OCC(F)F)(C1)C2 [Compound 203, 3-[2-(4-chloro-3-fluorophenoxy)acetamido]-N-{[2-(2,2-difluoroethoxy)phenyl]methyl}bicyclo[1.1.1]pentane-1-carboxamide]
> 2000	Cc1cccc(CNC(=O)C23CC(NC(=O)COc4ccc(Cl)c(F)c4)(C2)C3)c1 [Compound 166, 3-[2-(4-chloro-3-fluorophenoxy)acetamido]-N-[(3-methylphenyl)methyl]bicyclo[1.1.1]pentane-1-carboxamide]
250 to 500	O=C(COc1ccc(Cl)cc1)NC12CC(C(=O)NCCOc3cccc(F)c3)(C1)C2 [Compound 104, 3-[2-(4-chlorophenoxy)acetamido]-N-[2-(3-fluorophenoxy)ethyl]bicyclo-[1.1.1]pentane-1-carboxamide]
> 2000	Cn1ccnc1CNC(=O)C12CC(NC(=O)COc3ccc(Cl)c(F)c3)(C1)C2 [Compound 186, 3-[2-(4-chloro-3-fluorophenoxy)acetamido]-N-[(1-methyl-1H-imidazol-2-yl)methyl]bicyclo[1.1.1]pentane-1-carboxamide]
> 2000	Cc1noc(CNC(=O)C23CC(NC(=O)COc4ccc(Cl)c(F)c4)(C2)C3)n1 [Compound 159, 3-[2-(4-chloro-3-fluorophenoxy)acetamido]-N-[(3-methyl-1,2,4-oxadiazol-5-yl)methyl]bicyclo[1.1.1]pentane-1-carboxamide]
> 2000	Cc1ccc(C)c(CNC(=O)C23CC(NC(=O)COc4ccc(Cl)c(F)c4)(C2)C3)c1 [Compound 190, 3-[2-(4-chloro-3-fluorophenoxy)acetamido]-N-[(2,5-dimethylphenyl)methyl]bicyclo[1.1.1]pentane-1-carboxamide]
> 2000	O=C(COc1ccc(Cl)c(F)c1)NC12CC(C(=O)NCc3ccccc3OC(F)F)(C1)C2 [Compound 243, 3-[2-(4-chloro-3-fluorophenoxy)acetamido]-N-{[2-(difluoromethoxy)phenyl]methyl}bicyclo[1.1.1]pentane-1-carboxamide]
> 2000	O=C(COc1ccc(Cl)c(F)c1)NC12CC(C(=O)NCc3ccc(C(F)(F)F)o3)(C1)C2 [Compound 215, 3-[2-(4-chloro-3-fluorophenoxy)acetamido]-N-{[5-(trifluoromethyl)furan-2-yl]methyl}bicyclo[1.1.1]pentane-1-carboxamide]
> 2000	Cc1cnc(CNC(=O)C23CC(NC(=O)COc4ccc(Cl)c(F)c4)(C2)C3)cn1 [Compound 228, 3-[2-(4-chloro-3-fluorophenoxy)acetamido]-N-[(5-methylpyrazin-2-yl)methyl]bicyclo[1.1.1]pentane-1-carboxamide]
